Where two headings read alike, the source gives them in different places. *1 amine or outer side, *2 acyl side, *3 side chain or, on linkers, in order; H or OH if unused. Where a SMILES comes first, the peptide text is derived from it. Bridges are numbered along the chain shown (N, C = ends). [ ]: non-standard residue; d: D form. ξ: configuration not given here. ξαMeNle(6-ylidene) = CC(CCCC=[*:3])(N[*:1])C(=O)[*:2]
What was measured:
[1] = tested on: p53 transcriptional activity in T22 cells; experiment: T22 p53 β-galactosidase based reporter assay; format: cell-based, murine; details: for IC50: T22 p53 reporter assay, 18 h; for ability to induce p53 activity in T22 reporter assay: with and without serum
Protocol: The YS-01/04 peptides were screened in a murine T22-derived p53 reporter assay, either with or without fetal calf serum, to assess their ability to induce p53 transcriptional activity in intact cells (Table 1 and FIG. 3).
(§1) T22 cells, which were stably transfected with a p53 responsive β-galactosidase reporter, were seeded into 96-well plate at a cell density of 8000 cells per well. Cells were also maintained in Dulbecco's Minimal Eagle Medium (DMEM) with 10% fetal bovine serum (FBS) and penicillin/streptomycin. […] Measurements were carried out using a Safire II multiplate reader. Experiments were carried out independently twice.

T22 cells = experiment: Lactate dehydrogenase release assay, T22 cells; format: cell-based; details: 2 h
Protocol: (§2) The stapled YS-01/04 peptides were also screened for their ability to perturb the cell membrane wall of T22 and ARN8 cells and release cytosolic lactate dehydrogenase (LDH). An effect that is regarded as undesirable as this may indicate that the peptide is non-specifically toxic to different cell types. A short 2 hour time treatment period is used for this assay as it is assumed that perforation of the cell membrane occurs […] for cell programmed death. […] The lactate dehydrogenase leakage measured was much greater in ARN8 cells than T22 cells, showing that different cells vary in their sensitivities to the membrane disruptive properties of YS-03. […] This implies that p53 activation, which is also supported by the data for YS-04, does occur in the absence of membrane disruption and that the biological activity observed for is not a direct consequence of cellular toxicity.
(§3) T22 cells or ARN8 cells, both of which were stably transfected with a p53 responsive β-galactosidase reporter, were seeded into a 96-well plate at a cell density of 5000 cells per well. Cells were also maintained in Dulbecco's Minimal Eagle Medium (DMEM) with 10% fetal bovine serum (FBS) and penicillin/streptomycin. The cells were incubated for 24 hours and then treated with compounds/peptide for 2 hours in DMEM with or without 10% FBS. Cytosolic lactate dehydrogenase release was detected using the non-radioactive cytotoxicity Assay kit (Promega) as per manufacturer's instructions. Measurements were carried out using an Envision multiplate reader.

ARN8 cells = experiment: Lactate dehydrogenase release assay, ARN8 cells; format: cell-based; details: 2 h
Protocol: as §2, §3

[2] = tested on: p53 transcriptional activity in ARN8 cells; experiment: ARN8 β-galactosidase based p53 reporter assay; format: cell-based, Human; details: serum free, 18 h
Protocol: ARN8 cells contain the same β-galactosidase gene under the control of a p53 promoter that is stably transfected into T22 cells. […] The YS-07 and YS-09 titrations were again repeated and the lactate dehydrogenase leakage from ARN8 cells measured instead (FIGS. 8c and 8d).
as §1, with “ARN8” for “T22”

[3] = molecular target: N-terminal domain of Mdm2 (1-125) (Homo sapiens, UniProt Q00987); experiment: Competitive fluorescence anisotropy titration (apparent Kd)
Sequence of N-terminal domain of Mdm2 (1-125) (Q00987 1-125): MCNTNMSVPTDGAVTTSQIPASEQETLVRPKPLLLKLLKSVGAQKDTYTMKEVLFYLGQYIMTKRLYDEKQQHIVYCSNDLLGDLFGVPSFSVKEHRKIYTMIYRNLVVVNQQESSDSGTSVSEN
Protocol: In this assay, a N-terminally FAM labelled peptide of the sequence [sequence]
The cells expressing the Mdm2 GST fusion construct were grown in LB medium at 37° C. to an OD600 of ˜0.6 and induction was carried out with 1 mM isopropyl β-D-1-thiogalactopyranoside (IPTG) at room temperature. Cells were harvested by centrifugation and the cell pellets were resuspended in 50 mM Tris pH 8.0, 10% sucrose and then sonicated. The sonicated sample was centrifuged for 60 minutes at 17,000 g at 4° C. […] The column was then further washed by 6 volumes of wash buffer. Mdm2 were then purified from the column by cleavage with PreScission protease. 10 units of PreScission protease, in one column volume of PBS with 1 mM DTT buffer, were injected onto the column. The cleavage reaction was allowed to proceed overnight at 4° C. The cleaved protein was then eluted of the column with wash buffer. Protein fractions were analysed with SDS-PAGE and concentrated using a Centricon (3.5 kDa molecular weight cut-off (MWCO)) concentrator. The Mdm2 protein sample was then dialyzed into a buffer solution containing 20 mM Bis-Tris, pH 6.5, 0.05M NaCl with 1 mM DTT and loaded onto a monoS column pre-equilibrated in buffer A (20 mM Bis-Tris, pH 6.5, 1 mM DTT). The column was then washed in 6 column volumes of buffer A and bound protein was eluted with a linear gradient of 1M NaCl over 25 column volumes. Protein fractions were analysed with sodium dodecyl sulfate-polyacrylamide gel electrophoresis (SDS-PAGE) and concentrated using a Centricon (3.5 kDa molecular weight cut-off (MWCO)) concentrator.
Apparent dissociation constant (Kd) values were determined for a variety of molecules via competitive fluorescence anisotropy experiments. […] The competing molecules were then titrated against the complex of the FAM labelled peptide and protein. Apparent dissociation constant (Kd) values were determined by fitting the experimental data to the equations shown below:
[L]st and [L]t denote labelled ligand and total unlabelled ligand input concentrations, respectively. Kd2 is the dissociation constant of the interaction between the unlabelled ligand and the protein. In all competitive types of experiments, it is assumed that [P]t>[L]st, otherwise considerable amounts of free labelled ligand would always be present and would interfere with measurements. […] The FAM-labelled peptide was dissolved in dimethyl sulfoxide (DMSO) at 1 mM and diluted into experimental buffer. Readings were carried out with a Envision Multilabel Reader. […] All titrations were carried out in triplicate. Curve-fitting was carried out using Prism 4.0 (GraphPad). […]

[4] = tested on: p53 and Mdm2 protein levels in T22 cells; experiment: T22 western blot analysis of p53 and Mdm2 protein levels; format: cell-based, Murine; details: 25 μM and 50 μM, 18 h, with or without fetal calf serum
Description: The YS-01/04 peptides were screened in a murine T22-derived p53 reporter assay, either with or without fetal calf serum, to assess their ability to induce p53 transcriptional activity in intact cells (Table 1 and FIG. 3). […] Considering the similar affinities that these peptides have for Mdm2, the difference in their IC50 values must reflect a change in their ability to enter the cell. This difference is observed for both sets of peptides (YS-01 and YS-02, YS-03 and YS-04, FIG. 3), which implies that the hydroxyl group of the C-terminal Y30 is responsible for the reduced efficiency of intracellular uptake. p53 and Mdm2 protein levels were then directly probed using western blot analysis. T22 cells were treated with 25 μM and 50 μM of YS-03 either with or without the presence of fetal calf serum (FIG. 4).
T22 Murine cells were seeded into 12 well plates at a cell density of 150000 cells per well and incubated overnight. Cells were also maintained in DMEM media with 10% fetal bovine serum (FBS) and penicillin/streptomycin. Cells were treated with various compounds/vehicle controls at the time points and concentrations indicated either in DMEM media with or without 10% FBS. Cells were rinsed with PBS and then harvested in 50 μl of 1×NuPAGE LDS sample buffer (NP0008). […] Protein concentrations were measured by BCA assay. […]

[5] = Circular dichroism spectroscopy (helicity in solution); format: physicochemical; details: peptide unbound in solution
[6] = absence of serum, read-out: T22 IC50 (0% μM)
[7] = presence of 10% fetal calf serum, read-out: T22 Ic50 (10% μM)
[8] = 50/25/12.5 μM, absence or presence of serum

| SMILES | IC50 [1, 6] | IC50 [1, 7] | cytosolic lactate dehydrogenase (LDH) release (T22 cells; serum free) | cytosolic lactate dehydrogenase (LDH) release (ARN8 cells; serum free) | p53 activation (β-galactosidase activity) in ARN8 cells [2] | cytosolic lactate dehydrogenase (LDH) release (T22 cells; [8]) | cytosolic lactate dehydrogenase (LDH) release (ARN8 cells; [8]) | Kd stronger in comparison to sMTIDE-02 ([3]; ratio to sMTIDE-02 Kd) | ability to induce p53 activity in T22 reporter assay [1] | p53 and Mdm2 protein levels (western blot) [4] | helicity in solution (CD spectra) [5] | Kd weaker than the i,i+4 analogue peptides (YS-01 and YS-02) ([3]; ratio to YS-01/YS-02 Kd) |
| --- | --- | --- | --- | --- | --- | --- | --- | --- | --- | --- | --- | --- |
| CC(=O)N[C@H](C(=O)N[C@@H](CO)C(=O)N[C@@H](Cc1ccccc1)C(=O)N[C@]1(C)CCCCCCC=CCCC[C@@](C)(C(N)=O)NC(=O)[C@H](CC(C)C)NC(=O)[C@H](CC(C)C)NC(=O)[C@H](C)NC(=O)[C@H](Cc2c[nH]c3ccccc23)NC(=O)[C@H](Cc2ccc(O)cc2)NC(=O)[C@H](CCC(=O)O)NC1=O)[C@@H](C)O [sMTide-02, Ac-TSFX8EYWALLS5-NH2, reference compound] | 2.75 µM | 17.9 µM | significant amounts of lactate dehydrogenase leakage | large amounts of lactate dehydrogenase leakage | poorly induces p53 activity |  |  |  |  |  |  |  |
| CC(=O)N[C@H](C(=O)N[C@@H](CO)C(=O)N[C@@H](Cc1ccccc1)C(=O)NC1(C)CCCC=CCCCC(C)(C(=O)N[C@@H](CC(C)C)C(=O)N[C@@H](CC(C)C)C(=O)N2CCC[C@H]2C(=O)N[C@@H](CCC(=O)O)C(=O)N[C@@H](CC(N)=O)C(=O)N[C@@H](Cc2ccc(O)cc2)C(N)=O)NC(=O)[C@H](Cc2c[nH]c3ccccc23)NC(=O)[C@H](Cc2ccc(O)cc2)NC(=O)[C@H](CCC(=O)O)NC1=O)[C@@H](C)O (stereo partly drawn) [YS-02, Ac-^17TSFX5EYWX5LLPENY^30-NH2] (Ac-TSF[ξαMeNle(6-ylidene)]EYW[ξαMeNle(6-ylidene)]LLPENY-NH2; staple 4-8) |  |  |  |  |  | negligible lactate dehydrogenase release | negligible lactate dehydrogenase release | approximately 3 fold |  |  |  |  |
| CC(=O)N[C@H](C(=O)N[C@@H](CO)C(=O)N[C@@H](Cc1ccccc1)C(=O)NC1(C)CCCCCCC=CCCCC(C)(C(=O)N[C@@H](CCC(=O)O)C(=O)N[C@@H](CC(N)=O)C(=O)N[C@@H](Cc2ccccc2)C(N)=O)NC(=O)[C@H](CC(C)C)NC(=O)[C@H](CC(C)C)NC(=O)[C@H](C)NC(=O)[C@H](Cc2c[nH]c3ccccc23)NC(=O)[C@H](Cc2ccc(O)cc2)NC(=O)[C@H](CCC(=O)O)NC1=O)[C@@H](C)O (stereo partly drawn) [YS-03, Ac-^17TSFX8EYWALLS5ENF^30-NH2] | 4.57 µM | 54.7 µM |  |  |  |  |  |  | greater potency in the T22 assay than YS-01 and YS-02 | induction of p53 and Mdm2 protein levels | significantly more helical in character in solution than YS-01 and YS-02 | approximately 2 fold |
| CC(=O)N[C@H](C(=O)N[C@@H](CO)C(=O)N[C@@H](Cc1ccccc1)C(=O)NC1(C)CCCC=CCCCC(C)(C(=O)N[C@@H](CC(C)C)C(=O)N[C@@H](CC(C)C)C(=O)N[C@@H](CO)C(=O)N[C@@H](CCC(=O)O)C(=O)N[C@@H](CC(N)=O)C(=O)N[C@@H](Cc2ccccc2)C(N)=O)NC(=O)[C@H](Cc2c[nH]c3ccccc23)NC(=O)[C@H](Cc2ccc(O)cc2)NC(=O)[C@H](CCC(=O)O)NC1=O)[C@@H](C)O (stereo partly drawn) [YS-05, Ac-^17TSFX5EYWX5LLSENF^30-NH2] (Ac-TSF[ξαMeNle(6-ylidene)]EYW[ξαMeNle(6-ylidene)]LLSENF-NH2; staple 4-8) |  |  |  |  |  | negligible activity | negligible activity |  | improvement of both peptides to activate p53 |  | significantly more helical structure |  |

Source: patent US11319344B2, “Non-membrane disruptive P53 activating stapled peptides” (AGENCY FOR SCIENCE, TECHNOLOGY AND RESEARCH, priority 2015, dated 2022)
